Data set [1] relates to FRα(−) M109 murine lung carcinoma. The experiment in a line: In vivo antitumor efficacy, FRα(−) M109 parent tumor model. More on the design: species or system mice. Conditions: bolus IV; FIG. 5. The text has this: (§1) Female CD2F1 mice (Harlan Sprague-Dawley Inc., 20-22 g) maintained in a controlled environment and provided with water and food ad libitum were used in these studies. The murine FRα(−) Madison 109 (M109) lung carcinoma (Marks et al., 1977) and the FR-expressing (FRα(+)) 98M109 variant were used to evaluate the efficacy of the epothilone, epothilone analog (e.g., epothilone derivative), folate-epothilone conjugate, or folate-epothilone analog conjugate. In addition, the human head and neck epidermoid carcinoma KB grown in nude mice was also used for this purpose. […]
(§2) Tumor response was determined by measurement of tumors with a caliper twice a week, until the tumors reached a predetermined “target” size of 1 gm. […]
(§3) Antitumor activity was evaluated at the maximum tolerated dose (MTD) which is defined as the dose level immediately […] which excessive toxicity (i.e. more than one death) occurred. When death occurred, the day of death was recorded. […]
(§4) To estimate tumor cell kill, the tumor volume doubling time (TVDT) was first calculated with the formula: TVDT=Median time (days) for control tumors to reach target size−Median time (days) for control tumors to reach half the target size And, Log cell kill=T-C÷(3.32×TVDT) Statistical evaluations of data were performed using Gehan's generalized Wilcoxon test.

Data set [2] addresses T1, folate receptor (FR) (Homo sapiens, UniProt P15328).
T1 construct: FR expressed on KB tumor cells grown to confluence; endogenous in cells; host or cells: KB tumor cells
The experiment in a line: Displacement of radiolabeled folic acid from FR expressed on KB tumor cells. In kind it is binding. Particulars: compared to folic acid (RA = 1.0). How it is done:
The binding of these folate conjugates of Compound AA to FR was determined in an assay that measures displacement of radiolabeled folic acid from FR expressed on KB tumor cells grown to confluence.

Data set [3] deals with HCT116 colon carcinoma cell line. The experiment in a line: cells. Type of data set: cell-based, human. How it is done: (§5) In vitro cytotoxicity was assessed in tumor cells using a tetrazolium-based colorimetric assay which takes advantage of the metabolic conversion of MTS (3-(4,5-dimethylthiazol-2-yl)-5-(3-carboxymethoxyphenyl)-2-(4-sulphenyl)-2H-tetrazolium, inner salt) to a reduced form that absorbs light at 492 nm. Cells were seeded 24 hr prior to addition of the epothilone, epothilone analog, conjugated epothilone, or conjugated epothilone analog. Following a 72 hour incubation at 37° C. with serially diluted compound, MTS, in combination with the electron coupling agent phenazine methosulfate, was added to the cells. The incubation was continued for 3 hours, then the absorbency of the medium at 492 nm was measured with a spectrophotometer to obtain the number of surviving cells relative to control populations. The results are expressed as median cytotoxic concentrations (IC50 values).
(§6) Other epothilone analogs, e.g., aziridinyl epothilones, are known in the art (see, e.g., U.S. Pat. No. 6,399,638; Regueiro-Ren, A, et al. (2001) Org. Letters. 3:2693-96) and show potent antitumor cytotoxicity. For example, an MTS assay that compared the relative cytotoxic potency of a number of epothilone analogs against a pair of taxane-resistant cancer cell lines (HCTVM46 and […]) was conducted (see Table 1). HCTVM46 is a human colon carcinoma cell line derived from the sensitive HCT116 parent line, and is resistant to taxanes due to overexpression of the 170 kD p-glyprotein drug efflux transporter. A2780Tax is a human ovarian carcinoma cell line derived from the parent A2780 line, and is resistant to paclitaxel as a result of a mutation in the tubulin amino acid sequence that impairs the ability of paclitaxel to bind.
(§7) As is shown in Table 1, various aziridinyl epothilone analogs (Compounds CC-EE) show potent antitumor activity against both the HCT116 colon and A2780 ovarian carcinoma cell lines, compared to other known antitumor agents, e.g., paclitaxel, compound AA, and epothilone B.

The subject of data set [4] is A2780 ovarian carcinoma cell line. The experiment in a line: In vitro MTS proliferation/cytotoxicity assay, A2780. Type of data set: cell-based, human. How it is done: as §5, §6, §7
For data set [5], the system named is A2780Tax. In kind it is cell-based, human. How it is done:
as §5, §6

Data set [6] has as its system HCT116VM46. The experiment in a line: In vitro MTS cytotoxicity assay, taxane-resistant HCT116VM46 (R/S ratio). In kind it is cell-based, human. Conditions: R/S ratio = HCT116VM46 IC50/HCT116 IC50. How it is done: as §5, §6
For data set [7], the system named is clonogenic KB cancer cells. The experiment in a line: Clonogenic cell survival (colony formation) assay. Type of data set: cell-based, human. How it is done: Cancer cells were seeded at 3.0E+05 cells in a T75 flask with 10 ml of RPMI1640 media, free of folic acid, and containing 10% fetal bovine serum and 25 mM HEPES. Cells were grown in a 37° C. incubator containing 5% CO2 for 2 days. On day 2, supernatants were removed from the flasks, and the flasks were divided into 2 groups. One group of cells were incubated with 5 ml of media containing […] of folic acid (Sigma) for 30 minutes and the others were grown in 5 ml of media without added folic acid. Cells were then treated with 20 nM of epothilone, epothilone analog, conjugated epothilone, or conjugated epothilone analog for one hour. At the end of the incubation, the drugs were removed from the flasks and the cells were washed with PBS buffer 3×. After washing, 5 ml of complete media were added into each flask, and the cell was grown in the CO2 incubator for 23 hours. The next morning, the cells were removed from the flasks by trypsinization, cell numbers were determined, and then cells were plated in a 6 well plates. Ten days after plating, colonies were stained with crystal violet and counted. The surviving fractions were determined.
This is important because it is the aziridine epothilone analog, e.g., Compound G, that mediates the antitumor effects upon release from folic acid. […] The concentration needed to kill 90% of clonogenic KB cancer cells (IC90) was determined after a drug exposure duration of 17 hours.

Data set [8] relates to KB nasopharyngeal epidermoid carcinoma xenografts. Description: In vivo antitumor efficacy, KB FRα(+) xenografts in nude mice. Conditions: KB model, FIG. 4.
Excerpt: as §1, §2, §3, §4

Data set [9] relates to FRα(+) 98M109 tumors. The experiment in a line: In vivo antitumor efficacy, FRα(+) 98M109 tumors with folate analog competition. Also on record: species or system mice. Conditions: folate analog at 20-fold excess of the dose of compound J; FIG. 6.
Excerpt: as §1, §2, §3, §4

Setting [10] is: Homo sapiens, A2780, MTS assay, mean IC50 ± SD from four separate experiments, read-out: A2780 IC5.
Setting [11] is: Homo sapiens, HCT-116, read-out: HCT116 IC50 (nM).
Where [12] appears, read: Homo sapiens, A2780, read-out: A2780 IC5 (nM).

Where two headings read alike, the source gives them in different places.

T1 sequence (P15328 25-234): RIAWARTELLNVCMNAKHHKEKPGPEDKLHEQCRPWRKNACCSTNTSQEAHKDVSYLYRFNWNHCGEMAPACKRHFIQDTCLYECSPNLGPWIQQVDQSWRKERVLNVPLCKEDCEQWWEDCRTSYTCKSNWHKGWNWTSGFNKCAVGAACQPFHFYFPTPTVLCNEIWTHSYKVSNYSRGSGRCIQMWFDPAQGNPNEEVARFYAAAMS

Consider `C/C(=C\c1csc(C)n1)[C@@H]1C[C@@H]2O[C@]2(C)CCC[C@H](C)[C@H](O)[C@@H](C)C(=O)C(C)(C)[C@@H](O)CC(=O)N1` [ixabepilone], for which the “antitumor activity in FRα(−) M109 parent tumor model” value in data set [1] is given as “active at its MTD”.
In the case of `Nc1nc2ncc(CNc3ccc(C(=O)N[C@@H](CCC(=O)O)C(=O)O)cc3)nc2c(=O)[nH]1` [folic acid], in [2], the “relative affinity (RA) for folate receptor” value stood at 1.0.
`C/C(=C\c1csc(CN)n1)C1C[C@@H]2O[C@]2(C)CCCC(C)[C@H](O)[C@@H](C)C(=O)C(C)(C)[C@@H](O)CC(=O)O1` (some centres unmarked) [Compound AA]: the IC50 in data set [3] (Homo sapiens, HCT-116, MTS assay, mean IC50 ± SD from four separate experiments, read-out: HCT116 IC50) was 1.2 ± 0.3 nM; in data set [4] (setting [10]) it was 1.1 ± 0.4 nM. For the same compound, in data set [5], the “R/S Ratio (A2780)” value stood at 3. For the same compound, the “R/S Ratio (HCT116)” value in data set [6] turned out to be 14.8.
`C/C(=C\c1csc(C)n1)[C@@H]1C[C@H]2[C@@H](CCCC(C)[C@H](O)[C@@H](C)C(=O)C(C)(C)[C@@H](O)CC(=O)O1)N2CCO` (relative stereo) [Compound G, [1S-[1R*,3R*(E),7R*,10S*,11R*,12R*,16S*]]-7,11-Dihydroxy-17-[2-hydroxyethyl]-8,8,10,12-tetramethyl-3-[1-methyl-2-(2-methyl-4-thiazolyl)ethenyl]-4-oxa-17-azabicyclo[14.1.0]heptadecane-5,9-dione]: in data set [7] (IC90, KB cells, 17 hours), the “fold more potent than compound AA” value is about 4 fold, the “fold more potent than compound CC” value was about 2 fold and the “fold more potent than ixabepilone” value is recorded as about 6 fold. Further, the “concentration needed to kill 90% of clonogenic KB cancer cells (IC90)” value in data set [7] (drug exposure duration of 17 hours, FIG. 3) is recorded as 4.3 nM.
Consider `C/C(=C\c1csc(C)n1)[C@@H]1C[C@@H]2O[C@]2(C)CCC[C@H](C)[C@H](O)[C@@H](C)C(=O)C(C)(C)[C@@H](O)CC(=O)O1` [Epothilone B], for which the IC50 in [3] (MTS assay, mean IC50 ± SD from four separate experiments, read-out: HCT116 IC50) is 0.4 ± 0.13 nM; in data set [4] (MTS assay, mean IC50 ± SD from four separate experiments, read-out: A2780 IC5), 0.23 ± 0.09 nM. The “R/S Ratio (A2780)” value in data set [5] was found to be 2.5. Also, the “R/S Ratio (HCT116)” value in data set [6] was 0.5.
Take `C/C(=C\c1csc(C)n1)C1C[C@@H]2N[C@@H]2CCCC(C)[C@H](O)[C@@H](C)C(=O)C(C)(C)[C@@H](O)CC(=O)O1` (some centres unmarked) [Compound CC]: the IC50 in [3] (setting [11]) was found to be 4.2 ± 2.8 nM; in [4] (setting [12]), 3.4 ± 1.5 nM. Besides, the “R/S Ratio (A2780)” value in data set [5] was 4.7. Also, the “R/S Ratio (HCT116)” value in [6] was 3.1.
Take `C/C(=C\c1csc(C)n1)[C@@H]1C[C@H]2[C@@H](CCC[C@H](C)[C@H](O)[C@@H](C)C(=O)C(C)(C)[C@@H](O)CC(=O)O1)N2CCOC(=O)OCCSSC[C@H](NC(=O)[C@H](CC(=O)O)NC(=O)[C@H](CCCNC(=N)N)NC(=O)[C@H](CC(=O)O)NC(=O)CC[C@H](NC(=O)c1ccc(NCc2cnc3nc(N)[nH]c(=O)c3n2)cc1)C(=O)O)C(=O)O` (some centres unmarked) [Compound J]: the “toxicity at two lower dose levels” value in [8] (dose levels below MTD) is listed as “minimal toxicity”. Also, the “antitumor effects compared at the MTDs” value in data set [8] (versus ixabepilone) was “superior antitumor effects than ixabepilone”. Also, the “effect of co-administration of a folate analog on antitumor effects” value in data set [9] is “protect FRα(+) 98M109 tumors from the antitumor effects of compound J”. Also, the “relative affinity (RA) for folate receptor” value in data set [2] is recorded as 0.77. Further, the “antitumor activity in FRα(−) M109 parent tumor model” value in data set [1] was “poor activity at all dose levels tested”.
Turning to `C/C(=C\c1csc(C)n1)C1C[C@H]2[C@@H](CCCC(C)[C@H](O)[C@@H](C)C(=O)C(C)(C)[C@@H](O)CC(=O)O1)N2C` (some centres unmarked) [DD], the IC50 in [3] (setting [11]) stood at 0.37 ± 0.13 nM; in data set [4] (setting [12]), 0.25 ± 0.06 nM. Further, in data set [5], the “R/S Ratio (A2780)” value was determined as 4.1. Also, the “R/S Ratio (HCT116)” value in data set [6] is given as 0.6.
`CC(=O)O[C@H]1C(=O)[C@@]2(C)[C@H]([C@H](OC(=O)c3ccccc3)[C@]3(O)C[C@H](OC(=O)[C@H](O)[C@@H](NC(=O)c4ccccc4)c4ccccc4)C(C)=C1C3(C)C)[C@]1(OC(C)=O)CO[C@@H]1C[C@@H]2O` [paclitaxel]: the IC50 in data set [4] (setting [10]) is 3.1 ± 1 nM. In addition, in data set [6], the “R/S Ratio (HCT116)” value amounted to 150.

These data come from patent publication USRE42930E1, “Aziridinyl-epothilone compounds” (Bristol-Myers Squibb Company, priority 2006, dated 2011).
